Test results as given in publication PMC8842277, “Highly Antiproliferative Latonduine and Indolo[2,3-c]quinoline Derivatives: Complex Formation with Copper(II) Markedly Changes the Kinase Inhibitory Profile” (Journal of Medicinal Chemistry, 2022).

Experiments:
[1] = Thermodynamic solubility, UV–vis of saturated solutions
Method: The concentration of the compounds was determined by UV–vis spectrophotometry using stock solutions of the compounds with a known concentration dissolved in pure DMSO and 50% (v/v) DMSO/buffered aqueous solution for the calibration.

[2] = system: HCT-116 isogenic p53-knock-out subline; test: MTT assay, 96 h; type: cell-based, human; conditions: read-out: IC50 HCT-116p53ko, mean
From the text: The oncosuppressor protein p53 controls the cellular response to DNA strand breaks induced by cytotoxic drugs or by radiation.[58] The p53 protein may enhance cell chemosensitivity by promoting apoptosis via different mechanisms including activation of proapoptotic genes such as bax and repression of antiapoptotic genes such as bcl-2 or in contrast increase chemoresistance by promoting p21-mediated and p21-independent growth arrest and DNA repair and by activation of antiapoptotic genes such as bcl-x. There is strong evidence that the modulation of drug sensitivity by p53 may be both drug- and cell type-specific.[59] […] Accordingly, essential differences in chemosensitivity were observed between cells with wild-type p53 gene and cells with knocked out p53 gene by homologous recombination.[60]
Human colonic adenocarcinoma cell lines Colo 205 doxorubicin-sensitive (ATCC-CCL-222) and Colo 320/MDR-LRP multidrug resistant over-expressing ABCB1 (MDR1)-LRP (ATCC-CCL-220.1) were purchased from LGC Promochem, Teddington, UK. The cells were cultured in an RPMI 1640 medium supplemented with 10% heat-inactivated fetal bovine serum, 2 mM L-glutamine, 1 mM Na-pyruvate, and 10 mM HEPES. The semi-adherent human colon cancer cells were detached with Trypsin-Versene (EDTA) solution for 5 min at 37 °C. An MRC-5 human embryonal lung fibroblast cell line (ATCC CCL-171) was purchased from LGC Promochem, Teddington, UK. The cells were cultured in Eagle’s minimal essential medium (EMEM, containing 4.5 g L^–1 glucose) supplemented with a non-essential amino acid mixture, a selection of vitamins, and 10% heat-inactivated fetal bovine serum. The HCT-116 colon carcinoma cells and isogenic p53-knock-out subline were a gift of Prof. Bert Vogelstein from The Johns Hopkins Oncology Center. Cells were cultured in McCoy’s 5A medium supplemented with 10% heat-inactivated fetal bovine serum and 4 mM L-glutamine. All cell lines were incubated at 37 °C, in a 5% CO2, 95% air atmosphere.
MRC-5 non-cancerous human embryonic lung fibroblast and human colonic adeno-carcinoma cell lines (doxorubicin-sensitive Colo 205 and multidrug resistant Colo 320 colonic adenocarcinoma cells) were used to determine the effect of compounds on cell growth. The effects of increasing concentrations of compounds on cell growth were tested in 96-well flat-bottomed microtiter plates. The compounds were dissolved in DMSO and stock solutions of 10 mM were prepared. These were further diluted in the appropriate cell culture medium by twofold serial dilution starting from 100 or 10 μM for the compounds. The adherent human embryonal lung fibroblast cells were cultured in 96-well flat-bottomed microtiter plates using EMEM supplemented with 10% heat-inactivated fetal bovine serum. The density of the cells was adjusted to 1 × 10^4 cells in 100 μL per well, the cells were seeded for 24 h at 37 °C, 5% CO2, then the medium was removed from the plates containing the cells, and the dilutions of compounds previously made in a separate plate were added to the cells in 200 μL. In the case of the colonic adenocarcinoma cells, the twofold serial dilutions of compounds were prepared in 100 μL of RPMI 1640, horizontally. The semi-adherent colonic adenocarcinoma cells were treated with Trypsin-Versene (EDTA) solution. They were adjusted to a density of 1 × 10^4 cells in 100 μL of RPMI 1640 medium and were added to each well, with the exception of the medium control wells. […]

[3] = system: AMPK (hum); test: Kinase panel screen; type: biochemical, human; conditions: 10 µM compound
From the text: Figure 7 (see also Table S4) summarizes the results of this assay as a histogram plotting the percentage of the remaining enzyme activity (x-axis) as a function of added lead compound (HL^8: blue trace, 8: red trace) for each of the 50 enzymes assayed (y-axis). […] Thus, the coordination to copper(II) completely changes the kinase inhibition profile of HL^8.
Figure 7 Screening of HL^8 and 8 against 50 enzymes: histogram with % remaining activity on the x-axis plotted against the compound identifier (blue trace: HL^8 and red trace: 8) and enzyme identifier on the […]. The screen was carried out at a compound concentration of 10 μM, an enzyme concentration of 50 nM, and an ATP concentration of 100 μM.
All kinase assays were carried out using Multidrop 384’s at room temperature in a total assay volume of 25.5 μL. To plates containing 0.5 μL of HL^8 and 8, DMSO control or acid blank […], 15 μL of an enzyme mix containing enzyme […], and excess peptide/protein substrate in buffer was added. Compounds were pre-incubated in the presence of the enzyme and peptide/protein substrate for 5 min before initiation of the reaction by addition of 10 μL of ATP (final concentration selected for each kinase at 5, 20, or 50 μM). […] The dry Unifilter plates were then sealed on the addition of MicroScint O and were counted in PerkinElmer Topcount scintillation counters.

With `CC(=NNc1nc2ccccc2c2c1[nH]c1ccc(Br)cc12)c1ccc(CN2CCOCC2)cn1.[Cl][Cu][Cl]` [compound 8, CuCl2(HL^8)·H2O] as the molecule, how does the “Thermodynamic solubility (S)” value ([1]; pH 5) read?
The value was 34.3 µM.

What about the “Thermodynamic solubility (S)” value ([1]; pH 7.4) of the same molecule?
The value was 10.4 µM.

What about the IC50 [2] of the same molecule?
The IC50 was 0.041 µM.

And the “% remaining activity” value [3]?
The value was 91%.
